Measurements: the NIST ThermoML archive (doi:10.1016/j.jct.2005.10.011)

Assays:
[1] = isobaric coefficient of expansion; conditions: 298.15 K; 101.33 kPa; Liquid; vibrating tube densimeter
[2] = 298.15 K, 101.33 kPa, Liquid; for viscosity: Capillary tube (Ostwald / Ubbelohde) method
[3] = xn = mol fraction of the nth substance listed; conditions: 298.15 K, 101 kPa, Liquid

CCCCCCCC [octane]
Conditions | isobaric coefficient of expansion | mass density [kg/m3] | viscosity [mPa·s]
[1] | 0.00115 1/K | – | –
[2] | – | 698.59 | 0.514

CCCCC [pentane] + Cc1ccccc1
[3]
Conditions | mass density [kg/m3]
x2 = 0.0415 | 629.87
x2 = 0.2011 | 668.27
x2 = 0.2799 | 687.21
x2 = 0.3647 | 707.61
x2 = 0.4341 | 724.3
x2 = 0.6011 | 764.45
x2 = 0.6821 | 783.95
x2 = 0.7502 | 800.32
x2 = 0.8213 | 817.43
x2 = 0.9137 | 839.65

CCCCCCCCC [nonane] + Cc1ccccc1
[3]
Conditions | mass density [kg/m3]
x2 = 0.0396 | 719.17
x2 = 0.1938 | 731.3
x2 = 0.2815 | 739.97
x2 = 0.3621 | 749.08
x2 = 0.4429 | 759.3
x2 = 0.6 | 782.29
x2 = 0.6627 | 792.62
x2 = 0.7595 | 809.87
x2 = 0.8399 | 825.37
x2 = 0.9168 | 841.23

Cc1ccccc1 [toluene] + CCCCCCC
[3]
Conditions | mass density [kg/m3]
x1 = 0.0398 | 678.24
x1 = 0.1999 | 693.04
x1 = 0.2791 | 721.62
x1 = 0.3596 | 736.18
x1 = 0.4416 | 764.46
x1 = 0.6048 | 779.21
x1 = 0.6825 | 793.71
x1 = 0.7593 | 808.12
x1 = 0.8463 | 823.09
x1 = 0.9132 | 837.25

CCCCCCCCCC [decane]
Conditions | isobaric coefficient of expansion | mass density [kg/m3] | viscosity [mPa·s]
[1] | 0.00104 1/K | – | –
[2] | – | 726.29 | 0.861

CCCCCCCCC [nonane]
Conditions | isobaric coefficient of expansion | mass density [kg/m3] | viscosity [mPa·s]
[1] | 0.00108 1/K | – | –
[2] | – | 714.01 | 0.665

CCCCC [pentane]
Conditions | isobaric coefficient of expansion | mass density [kg/m3] | viscosity [mPa·s]
[1] | 0.0016 1/K | – | –
[2] | – | 621.22 | 0.216

Cc1ccccc1 [toluene]
Conditions | isobaric coefficient of expansion | mass density [kg/m3] | viscosity [mPa·s]
[1] | 0.00109 1/K | – | –
[2] | – | 862.19 | 0.552

CCCCCCCC [octane] + Cc1ccccc1
[3]
Conditions | mass density [kg/m3]
x2 = 0.0398 | 692.41
x2 = 0.1999 | 718.64
x2 = 0.2791 | 731.62
x2 = 0.3596 | 744.8
x2 = 0.4416 | 758.23
x2 = 0.6048 | 784.96
x2 = 0.6825 | 797.69
x2 = 0.7593 | 810.27
x2 = 0.8463 | 824.52
x2 = 0.9132 | 835.49

CCCCCC [hexane] + Cc1ccccc1
[3]
Conditions | mass density [kg/m3]
x2 = 0.0406 | 657.47
x2 = 0.2028 | 690.93
x2 = 0.2804 | 706.95
x2 = 0.3596 | 723.29
x2 = 0.4423 | 740.35
x2 = 0.5997 | 772.81
x2 = 0.6757 | 788.5
x2 = 0.7597 | 805.83
x2 = 0.8412 | 822.63
x2 = 0.9199 | 838.87

CCCCCCC [heptane]
Conditions | isobaric coefficient of expansion | mass density [kg/m3] | viscosity [mPa·s]
[1] | 0.00124 1/K | – | –
[2] | – | 679.69 | 0.395

CCCCCC [hexane]
Conditions | isobaric coefficient of expansion | mass density [kg/m3] | viscosity [mPa·s]
[1] | 0.00138 1/K | – | –
[2] | – | 655.07 | 0.295

CCCCCCCCCC [decane] + Cc1ccccc1
[3]
Conditions | mass density [kg/m3]
x2 = 0.0405 | 730.61
x2 = 0.1975 | 740.67
x2 = 0.2817 | 747.82
x2 = 0.3619 | 755.75
x2 = 0.4394 | 764.48
x2 = 0.6 | 785.86
x2 = 0.6811 | 798.34
x2 = 0.7615 | 811.84
x2 = 0.84 | 826.07
x2 = 0.92 | 841.69
